Laboratory results reported in patent publication US20220162191A1, “SMALL MOLECULE MODULATORS OF IL-17” (LEO PHARMA A/S, priority 2019, published 2022).

Target: T1, human IL-17AA (Homo sapiens, UniProt Q16552)
T1 construct: host or cells: HEK (human embryonic kidney) cells
T1 sequence (Q16552 24-155) 1: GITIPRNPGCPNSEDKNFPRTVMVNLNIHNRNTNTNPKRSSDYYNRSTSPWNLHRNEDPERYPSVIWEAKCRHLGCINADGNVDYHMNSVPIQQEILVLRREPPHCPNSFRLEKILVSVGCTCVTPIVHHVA
T1 sequence (Q16552 24-155) 2: T1 sequence (Q16552 24-155) 1
Assay: IL-8 release assay in human epithelial keratinocytes adult (HEKa)
Type: cell-based
Details: 3 ng/ml human IL-17AA + 10 ng/ml human TNFalpha, 68-72 h, IL-8 by HTRF, read-out: Rel EC50 L-8 release assay
Procedure, shortened: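 Adult human keratinocytes in Epilife with HKGS minus hydrocortisone, treated with compound then stimulated with final 3 ng/ml HEK-derived human IL-17AA plus 10 ng/ml TNF-alpha for 68–72 h at 37 °C; TNF-alpha alone defines 100% inhibition. Secreted IL-8 by HTRF; relative IC50 and Emax from four-parameter fits.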

SMILES | EC50 [nM]
CCc1cc(-c2ccc(Cl)c(CC(NC(=O)c3ccnn3C)C(=O)Nc3ccc(-c4nncn4C)cc3)c2)ccc1C#N (stereo not drawn) [Example 198, N-[1-[[2-chloro-5-(4-cyano-3-ethyl-phenyl)phenyl]methyl]-2-[4-(4-methyl-1,2,4-triazol-3-yl)anilino]-2-oxo-ethyl]-2-methyl-pyrazole-3-carboxamide] | > 1000
Cc1ncn(C)c1-c1ccc(NC(=O)[C@H](Cc2cc(-c3ccc(=O)n(C(C)C)c3)ccc2Cl)NC(=O)OC2CC2)cc1 [Example 201, cyclopropyl N-[(1S)-1-[[2-chloro-5-(1-isopropyl-6-oxo-3-pyridyl)phenyl]methyl]-2-[4-(3,5-dimethylimidazol-4-yl)anilino]-2-oxo-ethyl]carbamate] | 100 to 1000
CC(C)c1cc(-c2ccc(Cl)c(CC(NC(=O)c3ccnn3C)C(=O)Nc3ccc(-c4nncn4C)cc3)c2)ccc1C#N (stereo not drawn) [Example 202, N-[1-[[2-chloro-5-(4-cyano-3-isopropyl-phenyl)phenyl]methyl]-2-[4-(4-methyl-1,2,4-triazol-3-yl)anilino]-2-oxo-ethyl]-2-methyl-pyrazole-3-carboxamide] | 100 to 1000
Cc1ncn(C)c1-c1ccc(NC(=O)[C@H](Cc2cc(-c3cccc(C(C)(C)N)c3)ccc2Cl)NC(=O)c2ccnn2C)cc1 [Example 203, N-[(1S)-1-[[5-[3-(1-amino-1-methyl-ethyl)phenyl]-2-chloro-phenyl]methyl]-2-[4-(3,5-dimethylimidazol-4-yl)anilino]-2-oxo-ethyl]-2-methyl-pyrazole-3-carboxamide] | 100 to 1000
Cc1ncn(C)c1-c1ccc(NC(=O)[C@H](Cc2cc(-c3cnn(C(C)(C)C#N)c3)ccc2Cl)NC(=O)c2ccnn2C)cc1 [Example 204, N-[(1S)-1-[[2-chloro-5-[1-(1-cyano-1-methyl-ethyl)pyrazol-4-yl]phenyl]methyl]-2-[4-(3,5-dimethylimidazol-4-yl)anilino]-2-oxo-ethyl]-2-methyl-pyrazole-3-carboxamide] | 100 to 1000
CC(C)c1cc(-c2ccc(Cl)c(C[C@H](NC(=O)c3ccnn3C)C(=O)Nc3ccc(-c4cncn4C)cc3)c2)ncn1 [Example 205, N-[(1S)-1-[[2-chloro-5-(6-isopropylpyrimidin-4-yl)phenyl]methyl]-2-[4-(3-methylimidazol-4-yl)anilino]-2-oxo-ethyl]-2-methyl-pyrazole-3-carboxamide] | 100 to 1000
CN1CCN(c2cc(-c3ccc(Cl)c(C[C@H](NC(=O)c4ccnn4C)C(=O)Nc4ccc(-c5cncn5C)cc4)c3)ccn2)CC1 [Example 206, N-[(1S)-1-[[2-chloro-5-[2-(4-methylpiperazin-1-yl)-4-pyridyl]phenyl]methyl]-2-[4-(3-methylimidazol-4-yl)anilino]-2-oxo-ethyl]-2-methyl-pyrazole-3-carboxamide] | 100 to 1000
C[C@H]1CNCCN1c1cc(-c2ccc(Cl)c(C[C@H](NC(=O)c3ccnn3C)C(=O)Nc3ccc(-c4cncn4C)cc3)c2)ccn1 [Example 208, N-[(1S)-1-[[2-chloro-5-[2-[(2S)-2-methylpiperazin-1-yl]-4-pyridyl]phenyl]methyl]-2-[4-(3-methylimidazol-4-yl)anilino]-2-oxo-ethyl]-2-methyl-pyrazole-3-carboxamide] | 100 to 1000
C[C@H]1CN(c2cc(-c3ccc(Cl)c(C[C@H](NC(=O)c4ccnn4C)C(=O)Nc4ccc(-c5cncn5C)cc4)c3)ccn2)CCN1 [Example 209, N-[(1S)-1-[[2-chloro-5-[2-[(3S)-3-methylpiperazin-1-yl]-4-pyridyl]phenyl]methyl]-2-[4-(3-methylimidazol-4-yl)anilino]-2-oxo-ethyl]-2-methyl-pyrazole-3-carboxamide] | 100 to 1000
C[C@@H]1CN(c2cc(-c3ccc(Cl)c(C[C@H](NC(=O)c4ccnn4C)C(=O)Nc4ccc(-c5cncn5C)cc4)c3)ccn2)CCN1 [Example 210, N-[(1S)-1-[[2-chloro-5-[2-[(3R)-3-methylpiperazin-1-yl]-4-pyridyl]phenyl]methyl]-2-[4-(3-methylimidazol-4-yl)anilino]-2-oxo-ethyl]-2-methyl-pyrazole-3-carboxamide] | 100 to 1000
Cc1ncn(C)c1-c1ccc(NC(=O)[C@H](Cc2cc(-c3ccnc(N4CCN(C)CC4)c3)ccc2Cl)NC(=O)OC2CC2)cc1 [Example 211, cyclopropyl N-[(1S)-1-[[2-chloro-5-[2-(4-methylpiperazin-1-yl)-4-pyridyl]phenyl]methyl]-2-[4-(3,5-dimethylimidazol-4-yl)anilino]-2-oxo-ethyl]carbamate] | 100 to 1000

Next, values leading:

EC50 [nM] | SMILES
100 to 1000 | Cn1cncc1-c1ccc(NC(=O)C(Cc2cc(-c3ccnc(N4CC[C@H]4CO)c3)ccc2Cl)NC(=O)c2ccnn2C)cc1 (stereo partly drawn) [Example 188, N-[1-[[2-chloro-5-[2-[(2S)-2-(hydroxymethyl)azetidin-1-yl]-4-pyridyl]phenyl]methyl]-2-[4-(3-methylimidazol-4-yl)anilino]-2-oxo-ethyl]-2-methyl-pyrazole-3-carboxamide]
100 to 1000 | Cn1cncc1-c1ccc(NC(=O)C(Cc2cc(-c3ccnc(N4CCC[C@@H]4CO)c3)ccc2Cl)NC(=O)c2ccnn2C)cc1 (stereo partly drawn) [Example 189, N-[1-[[2-chloro-5-[2-[(2R)-2-(hydroxymethyl)pyrrolidin-1-yl]-4-pyridyl]phenyl]methyl]-2-[4-(3-methylimidazol-4-yl)anilino]-2-oxo-ethyl]-2-methyl-pyrazole-3-carboxamide]
100 to 1000 | Cn1cncc1-c1ccc(NC(=O)C(Cc2cc(-c3ccnc(N4CC(CO)C4)c3)ccc2Cl)NC(=O)c2ccnn2C)cc1 (stereo not drawn) [Example 190, N-[1-[[2-chloro-5-[2-[3-(hydroxymethyl)azetidin-1-yl]-4-pyridyl]phenyl]methyl]-2-[4-(3-methylimidazol-4-yl)anilino]-2-oxo-ethyl]-2-methyl-pyrazole-3-carboxamide]
100 to 1000 | Cn1cncc1-c1ccc(NC(=O)C(Cc2cc(-c3ccnc(N4CC[C@H](O)C4)c3)ccc2Cl)NC(=O)c2ccnn2C)cc1 (stereo partly drawn) [Example 191, N-[1-[[2-chloro-5-[2-[(3S)-3-hydroxypyrrolidin-1-yl]-4-pyridyl]phenyl]methyl]-2-[4-(3-methylimidazol-4-yl)anilino]-2-oxo-ethyl]-2-methyl-pyrazole-3-carboxamide]
100 to 1000 | Cn1cncc1-c1ccc(NC(=O)C(Cc2cc(-c3ccnc(N4CC[C@@H](O)C4)c3)ccc2Cl)NC(=O)c2ccnn2C)cc1 (stereo partly drawn) [Example 192, N-[1-[[2-chloro-5-[2-[(3R)-3-hydroxypyrrolidin-1-yl]-4-pyridyl]phenyl]methyl]-2-[4-(3-methylimidazol-4-yl)anilino]-2-oxo-ethyl]-2-methyl-pyrazole-3-carboxamide]
100 to 1000 | Cn1cncc1-c1ccc(NC(=O)C(Cc2cc(-c3ccnc(N4CC(O)C4)c3)ccc2Cl)NC(=O)c2ccnn2C)cc1 (stereo not drawn) [Example 193, N-[1-[[2-chloro-5-[2-(3-hydroxyazetidin-1-yl)-4-pyridyl]phenyl]methyl]-2-[4-(3-methylimidazol-4-yl)anilino]-2-oxo-ethyl]-2-methyl-pyrazole-3-carboxamide]
100 to 1000 | Cn1cncc1-c1ccc(NC(=O)C(Cc2cc(-c3ccnc(N4CC5(CNC5)C4)c3)ccc2Cl)NC(=O)c2ccnn2C)cc1 (stereo not drawn) [Example 194, N-[1-[[2-chloro-5-[2-(2,6-diazaspiro[3.3]heptan-6-yl)-4-pyridyl]phenyl]methyl]-2-[4-(3-methylimidazol-4-yl)anilino]-2-oxo-ethyl]-2-methyl-pyrazole-3-carboxamide]
100 to 1000 | Cn1cncc1-c1ccc(NC(=O)C(Cc2cc(-c3ccnc(N4CC(N)C4)c3)ccc2Cl)NC(=O)c2ccnn2C)cc1 (stereo not drawn) [Example 195, N-[1-[[5-[2-(3-aminoazetidin-1-yl)-4-pyridyl]-2-chloro-phenyl]methyl]-2-[4-(3-methylimidazol-4-yl)anilino]-2-oxo-ethyl]-2-methyl-pyrazole-3-carboxamide]
100 to 1000 | CNC1CN(c2cc(-c3ccc(Cl)c(CC(NC(=O)c4ccnn4C)C(=O)Nc4ccc(-c5cncn5C)cc4)c3)ccn2)C1 (stereo not drawn) [Example 196, N-[1-[[2-chloro-5-[2-[3-(methylamino)azetidin-1-yl]-4-pyridyl]phenyl]methyl]-2-[4-(3-methylimidazol-4-yl)anilino]-2-oxo-ethyl]-2-methyl-pyrazole-3-carboxamide]
100 to 1000 | Cn1cncc1-c1ccc(NC(=O)C(Cc2cc(-c3ccnc(N4CCNCC4)c3)ccc2Cl)NC(=O)c2ccnn2C)cc1 (stereo not drawn) [Example 197, N-[1-[[2-chloro-5-(2-piperazin-1-yl-4-pyridyl)phenyl]methyl]-2-[4-(3-methylimidazol-4-yl)anilino]-2-oxo-ethyl]-2-methyl-pyrazole-3-carboxamide]
100 to 1000 | Cc1cc(-c2ccc(Cl)c(CC(NC(=O)c3ccnn3C)C(=O)Nc3ccc(-c4nncn4C)cc3)c2)cc(C)c1C#N (stereo not drawn) [Example 199, N-[1-[[2-chloro-5-(4-cyano-3,5-dimethyl-phenyl)phenyl]methyl]-2-[4-(4-methyl-1,2,4-triazol-3-yl)anilino]-2-oxo-ethyl]-2-methyl-pyrazole-3-carboxamide]
< 100 | Cc1n[nH]c(C)c1-c1ccc(NC(=O)[C@H](Cc2cc(-c3cnn(C(C)(C)C)c3)ccc2Cl)NC(=O)c2ccnn2C)cc1 [Example 200, N-[(1S)-1-[[5-(1-tert-butylpyrazol-4-yl)-2-chloro-phenyl]methyl]-2-[4-(3,5-dimethyl-1H-pyrazol-4-yl)anilino]-2-oxo-ethyl]-2-methyl-pyrazole-3-carboxamide]
< 100 | C[C@@H]1CNCCN1c1cc(-c2ccc(Cl)c(C[C@H](NC(=O)c3ccnn3C)C(=O)Nc3ccc(-c4cncn4C)cc3)c2)ccn1 [Example 207, N-[(1S)-1-[[2-chloro-5-[2-[(2R)-2-methylpiperazin-1-yl]-4-pyridyl]phenyl]methyl]-2-[4-(3-methylimidazol-4-yl)anilino]-2-oxo-ethyl]-2-methyl-pyrazole-3-carboxamide]
